Article PMC9506485, “Synthesis and Structure–Activity Relationships for the Anti-Mycobacterial Activity of 3-Phenyl-N-(Pyridin-2-ylmethyl)Pyrazolo[1,5-a]Pyrimidin-7-Amines” (Pharmaceuticals, 2022)
In brackets after ≈: the same amount, converted by molar mass.

How the values were obtained:
[1] = test system: Mycobacterium tuberculosis (strain H37Rv); test: LORA minimum inhibitory concentration assay (low-oxygen/non-replicating); details: M.tb H37Rv, 90% inhibition of growth
[2] = Microsomal stability, human liver microsomes; assay type: in vitro ADME; details: pH 7.4; for microsomal CLint at 1 μM: human liver microsomes, read-out: HLM Clint(mic)
Procedure, shortened: (§1)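 Compounds at 1 μM incubated at 37 °C with human or CD-1 mouse liver microsomes (0.5 mg/mL protein) plus NADPH regenerating system in 100 mM phosphate buffer, pH 7.4. Samples taken at 0–60 min, quenched in cold acetonitrile and analysed by LC-MS/MS.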

[3] = molecular target: hERG (Homo sapiens, UniProt Q12809); test: hERG channel blockade, manual patch clamp; assay type: cell-based; details: cloned hERG potassium channels, room temperature; for inhibition at 0.3 µM: read-out: hERG % inhib. at 0.3 µM; for inhibition at 1 µM: read-out: hERG % inhib. at 1.0 µM
Sequence of hERG (Q12809 whole entry): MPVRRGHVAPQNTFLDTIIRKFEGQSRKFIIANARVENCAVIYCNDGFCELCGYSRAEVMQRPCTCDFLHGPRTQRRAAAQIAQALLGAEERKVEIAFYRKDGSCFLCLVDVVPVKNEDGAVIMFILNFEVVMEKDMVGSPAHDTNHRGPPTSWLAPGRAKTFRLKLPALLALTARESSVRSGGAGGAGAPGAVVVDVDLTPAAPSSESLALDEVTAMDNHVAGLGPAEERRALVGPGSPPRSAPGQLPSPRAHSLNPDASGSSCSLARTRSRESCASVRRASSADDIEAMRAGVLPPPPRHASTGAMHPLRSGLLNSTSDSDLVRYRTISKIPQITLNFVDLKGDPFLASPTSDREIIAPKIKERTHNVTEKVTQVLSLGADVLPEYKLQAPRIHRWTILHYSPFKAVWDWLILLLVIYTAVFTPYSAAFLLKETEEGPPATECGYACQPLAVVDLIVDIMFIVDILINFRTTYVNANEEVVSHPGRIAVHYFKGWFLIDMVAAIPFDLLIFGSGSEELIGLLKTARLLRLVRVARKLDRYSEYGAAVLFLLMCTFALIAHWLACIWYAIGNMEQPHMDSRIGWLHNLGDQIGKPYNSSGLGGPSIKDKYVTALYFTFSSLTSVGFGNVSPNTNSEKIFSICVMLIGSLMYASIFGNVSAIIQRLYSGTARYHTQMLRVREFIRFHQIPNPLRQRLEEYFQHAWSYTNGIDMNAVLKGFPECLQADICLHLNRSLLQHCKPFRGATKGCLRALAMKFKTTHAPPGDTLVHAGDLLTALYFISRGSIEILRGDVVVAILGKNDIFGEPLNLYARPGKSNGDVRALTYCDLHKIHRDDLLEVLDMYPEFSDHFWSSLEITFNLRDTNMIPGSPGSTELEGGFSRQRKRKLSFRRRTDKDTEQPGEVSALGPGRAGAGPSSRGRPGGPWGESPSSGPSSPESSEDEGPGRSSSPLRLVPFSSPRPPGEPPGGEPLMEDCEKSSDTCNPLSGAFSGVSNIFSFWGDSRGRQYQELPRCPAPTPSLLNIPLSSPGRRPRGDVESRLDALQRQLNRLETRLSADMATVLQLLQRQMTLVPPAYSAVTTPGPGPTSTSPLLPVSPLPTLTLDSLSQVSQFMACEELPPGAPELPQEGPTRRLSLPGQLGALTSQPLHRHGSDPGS
Experimental: Selected compounds were evaluated for hERG channel blockade (Table 4) by WuXi AppTec (Shanghai) Co., Ltd. This was carried out using cloned hERG potassium channels according to their standard manual patch clamp method. Two concentrations (0.3 and 1.0 µM) were tested (at room temperature), and at least three replicates were obtained for each. Amitryptyline was used as a standard.

[4] = test system: Mycobacterium tuberculosis (strain H37Rv); test: MABA minimum inhibitory concentration assay (aerobic/replicating); assay type: cell-based; details: M.tb H37Rv; for MIC90: Mycobacterium tuberculosis, aerobic/replicating, 90% inhibition of growth
[5] = test system: VERO green monkey kidney cells; test: VERO mammalian cell toxicity assay; assay type: cell-based; details: Chlorocebus sabaeus; inhibition of growth of VERO green monkey kidney epithelial cells
[6] = Microsomal stability, mouse liver microsomes; assay type: in vitro ADME; details: for CLint scaled at 1 μM / half-life at 1 μM: CD-1, mouse, microsomes, pH 7.4; for microsomal CLint at 1 μM: CD-1, pH 7.4, mouse liver microsomes, read-out: MLM Clint(mic)
Procedure, shortened: as §1

[7] = test system: M.tb bacteria; parameters: method as in doi:10.1039/C5MD00589B, PMID 35140452; details: cited from earlier work
[8] = test system: M. smegmatis inverted membrane vesicle; parameters: method as in doi:10.1039/C5MD00589B, PMID 35140452; details: M. smegmatis inverted membrane vesicle assay; cited from earlier work
[9] = test system: tuberculosis; parameters: method as in doi:10.1039/C5MD00589B, PMID 35140452; details: cited from earlier work

Row | SMILES | MIC90 LORA [1] | CLint scaled at 1 μM ([2]; human, microsomes) | half-life at 1 μM ([2]; human, microsomes) | microsomal CLint at 1 μM [2] | half-life at 1 μM ([2]; human/mouse liver microsomes not distinguished, read-out: T½ values (microsomal stability)) | melting point | inhibition at 0.3 µM [3] | inhibition at 1 µM [3] | anti-mycobacterial activity in words ([4]; MABA/LORA) | MIC90 [4] | IC50 [5] | CLint scaled at 1 μM [6] | half-life at 1 μM [6] | microsomal CLint at 1 μM [6] | inhibition of M.tb bacteria in culture [7] | depletion of ATP [8] | activity in vivo in an acute mouse model of tuberculosis [9]
1 | COc1ccc(-c2cnn3c(NCc4ccccn4)cc(-c4ccccc4)nc23)cc1 [Compound 20, 3-(4-Methoxyphenyl)-5-phenyl-N-(pyridin-2-ylmethyl)pyrazolo[1,5-a]pyrimidin-7-amine] | 0.51 mg/L (≈ 1.25 µM) | 1.2 L/h/kg | 1.03 h | 22 µL/min/mg | < 1.42 h | 187 to 189 °C | 0% | 0% | active | 3.6 mg/L (≈ 8.83 µM) | > 32 mg/L | 5.52 L/h/kg | 1 h | 23 µL/min/mg | – | – | –
2 | CN(C)CCOc1ncc(Nc2cc(-c3ccccc3)nc3cc(-c4ccc(F)cc4)nn23)cc1F [Compound 5] | – | – | – | – | – | – | – | – | – | – | – | – | – | – | modest inhibitors | modest inhibitors | active in vivo
3 | Fc1ccc(-c2cnn3c(NCc4ccc(Cl)cn4)cc(-c4ccccc4)nc23)cc1 [Compound 53, N-((5-Chloropyridin-2-yl)methyl)-3-(4-fluorophenyl)-5-phenylpyrazolo[1,5-a]pyrimidin-7-amine] | 7.2 mg/L (≈ 16.7 µM) | < 0.516 L/h/kg | > 2.42 h | < 9.6 µL/min/mg | – | 139 to 141 °C | 0.7% | 0% | – | 4.9 mg/L (≈ 11.4 µM) | > 32 mg/L | < 2.28 L/h/kg | > 2.42 h | < 9.6 µL/min/mg | – | – | –
4 | Fc1ccc(-c2cnn3c(NCc4cc(N5CCCCC5)ccn4)cc(-c4ccccc4)nc23)cc1 [Compound 68, 3-(4-Fluorophenyl)-5-phenyl-N-((4-(piperidin-1-yl)pyridin-2-yl)methyl)pyrazolo[1,5-a]pyrimidin-7-amine] | 0.85 mg/L (≈ 1.78 µM) | 0.66 L/h/kg | 1.87 h | 12 µL/min/mg | – | 189 to 191 °C | 19% | 36% | – | 0.96 mg/L (≈ 2.01 µM) | > 32 mg/L | 5.52 L/h/kg | 1 h | 23 µL/min/mg | – | – | –
5 | COc1ccnc(CNc2cc(-c3ccccc3)nc3c(-c4ccc(F)cc4)cnn23)c1 [Compound 63, 3-(4-Fluorophenyl)-N-((4-methoxypyridin-2-yl)methyl)-5-phenylpyrazolo[1,5-a]pyrimidin-7-amine] | 0.5 mg/L (≈ 1.18 µM) | < 0.516 L/h/kg | > 2.42 h | < 9.6 µL/min/mg | – | 205 to 208 °C | 2.3% | 4.6% | – | 1.9 mg/L (≈ 4.47 µM) | > 32 mg/L | < 2.28 L/h/kg | > 2.42 h | < 9.6 µL/min/mg | – | – | –
6 | CN(C)CCOc1ncc(Nc2cc(C(F)(F)F)nc3cc(-c4ccc(F)cc4)nn23)cc1F [Compound 6] | – | – | – | – | – | – | – | – | – | – | – | – | – | – | modest inhibitors | modest inhibitors | active in vivo
